Data on 1 compound can be found in ChEMBL document CHEMBL3272018, “Synthesis of aziridinylallylaminophosphine oxides and sulfides as potential adjuvant cancer chemotherapeutic agents” (J Med Chem, 1976).

Data set [1] relates to Musca domestica. The data set can be described thus: Toxicity in male house fly assessed as sterility. The data set is classed as organism-based. The conditions noted are these: in vivo.
For data set [2], the system named is Musca domestica. The experiment in a line: Toxicity in mixed sex house flies assessed as sterility at 1% administered in sugar relative to control. The conditions noted are these: in vivo, po. The format is organism-based.

Each structure is given as a SMILES string.

For `C=CCN(C1=CCCCC1)P(=O)(N1CC1C)N1CC1C` (configuration not stated), the Activity result is given as “Non-toxic” with Musca domestica [1] and 82% in the data set on Musca domestica [2].
